# Measurements from publication PMC9823097, “Dysregulation of PRMT5 in chronic lymphocytic leukemia promotes progression with high risk of Richter’s transformation” (Nature Communications, 2023).
# Assays:
# [1] = test system: HG3 cells; assay: Cell growth curves over 12 days, HG3; assay type: cell-based; conditions: for anti-proliferative potency compared to PRT382: HG3
# Description: (§1) Live cells/mL were counted on days 3, 6, 10, and 12. […] The split factor was calculated at indicated time points by dividing the counted cells/mL by 3E5. Cell growth was extrapolated over time by multiplying the subsequent cell count by the previous split factor. Cell growth is plotted as fold change relative to DMSO-treated cells.
# [2] = test system: Mec-1 cells; assay: Cell growth curves over 12 days, Mec-1; assay type: cell-based; conditions: for anti-proliferative potency compared to PRT382: Mec-1
# Description: as §1
structure (smiles),measurement,setting,value
Nc1nc2cc(CC[C@H]3C[C@@H](n4ccc5c(N)ncnc54)[C@H](O)[C@@H]3O)ccc2cc1Br [JNJ-64619178],Rep 1 Live Cells [Fold Change],"[1]; HG3, 1 nM, day 0",1 Fold Change
same,Rep 2 Live Cells [Fold Change],"[1]; HG3, 1 nM, day 0",1 Fold Change
same,Rep 1 Live Cells [Fold Change],"[1]; HG3, 1 nM, day 3",6.233 Fold Change
same,Rep 2 Live Cells [Fold Change],"[1]; HG3, 1 nM, day 3",6.733 Fold Change
same,Rep 1 Live Cells [Fold Change],"[1]; HG3, 1 nM, day 6",33.0367 Fold Change
same,Rep 2 Live Cells [Fold Change],"[1]; HG3, 1 nM, day 6",39.5022 Fold Change
same,Rep 1 Live Cells [Fold Change],"[1]; HG3, 1 nM, day 10",290.723 Fold Change
same,Rep 2 Live Cells [Fold Change],"[1]; HG3, 1 nM, day 10",314.043 Fold Change
same,Rep 1 Live Cells [Fold Change],"[1]; HG3, 1 nM, day 12",802.395 Fold Change
same,Rep 2 Live Cells [Fold Change],"[1]; HG3, 1 nM, day 12",1088.68 Fold Change
same,Rep 1 Live Cells [Fold Change],"[1]; HG3, 10 nM, day 0",1 Fold Change
same,Rep 2 Live Cells [Fold Change],"[1]; HG3, 10 nM, day 0",1 Fold Change
same,Rep 1 Live Cells [Fold Change],"[1]; HG3, 10 nM, day 3",4.733 Fold Change
same,Rep 2 Live Cells [Fold Change],"[1]; HG3, 10 nM, day 3",5.9 Fold Change
same,Rep 1 Live Cells [Fold Change],"[1]; HG3, 10 nM, day 6",4.86 Fold Change
same,Rep 2 Live Cells [Fold Change],"[1]; HG3, 10 nM, day 6",7.375 Fold Change
same,Rep 1 Live Cells [Fold Change],"[1]; HG3, 10 nM, day 10",4.276 Fold Change
same,Rep 2 Live Cells [Fold Change],"[1]; HG3, 10 nM, day 10",8.039 Fold Change
same,Rep 1 Live Cells [Fold Change],"[1]; HG3, 10 nM, day 12",4.945 Fold Change
same,Rep 2 Live Cells [Fold Change],"[1]; HG3, 10 nM, day 12",8.633 Fold Change
same,Rep 1 Live Cells [Fold Change],"[1]; HG3, 100 nM, day 0",1 Fold Change
same,Rep 2 Live Cells [Fold Change],"[1]; HG3, 100 nM, day 0",1 Fold Change
same,Rep 1 Live Cells [Fold Change],"[1]; HG3, 100 nM, day 3",4.133 Fold Change
same,Rep 2 Live Cells [Fold Change],"[1]; HG3, 100 nM, day 3",5.6 Fold Change
same,Rep 1 Live Cells [Fold Change],"[1]; HG3, 100 nM, day 6",4.064 Fold Change
same,Rep 2 Live Cells [Fold Change],"[1]; HG3, 100 nM, day 6",5.619 Fold Change
same,Rep 1 Live Cells [Fold Change],"[1]; HG3, 100 nM, day 10",2.5 Fold Change
same,Rep 2 Live Cells [Fold Change],"[1]; HG3, 100 nM, day 10",4.6354 Fold Change
same,Rep 1 Live Cells [Fold Change],"[1]; HG3, 100 nM, day 12",1.958 Fold Change
same,Rep 2 Live Cells [Fold Change],"[1]; HG3, 100 nM, day 12",5.387 Fold Change
same,Rep 1 Live Cells [Fold Change],"[1]; HG3, 1 µM, day 0",1 Fold Change
same,Rep 2 Live Cells [Fold Change],"[1]; HG3, 1 µM, day 0",1 Fold Change
same,Rep 1 Live Cells [Fold Change],"[1]; HG3, 1 µM, day 3",1.6 Fold Change
same,Rep 2 Live Cells [Fold Change],"[1]; HG3, 1 µM, day 3",2.303 Fold Change
same,Rep 1 Live Cells [Fold Change],"[1]; HG3, 1 µM, day 6",1.024 Fold Change
same,Rep 2 Live Cells [Fold Change],"[1]; HG3, 1 µM, day 6",1.536 Fold Change
same,Rep 1 Live Cells [Fold Change],"[1]; HG3, 1 µM, day 10",3.369 Fold Change
same,Rep 2 Live Cells [Fold Change],"[1]; HG3, 1 µM, day 10",0.4381 Fold Change
same,Rep 1 Live Cells [Fold Change],"[1]; HG3, 1 µM, day 12",2.347 Fold Change
same,Rep 2 Live Cells [Fold Change],"[1]; HG3, 1 µM, day 12",3.411 Fold Change
same,anti-proliferative potency compared to PRT382,[1]; high doses (1µM),similar
same,anti-proliferative potency compared to PRT382,"[1]; lower doses (10nM, 100nM)",more potent
same,Rep 1 Live Cells [Fold Change],"[2]; Mec-1, 1 nM, day 0",1 Fold Change
same,Rep 2 Live Cells [Fold Change],"[2]; Mec-1, 1 nM, day 0",1 Fold Change
same,Rep 1 Live Cells [Fold Change],"[2]; Mec-1, 1 nM, day 3",6.73 Fold Change
same,Rep 2 Live Cells [Fold Change],"[2]; Mec-1, 1 nM, day 3",5.77 Fold Change
same,Rep 1 Live Cells [Fold Change],"[2]; Mec-1, 1 nM, day 6",33.4 Fold Change
same,Rep 2 Live Cells [Fold Change],"[2]; Mec-1, 1 nM, day 6",34.4 Fold Change
same,Rep 1 Live Cells [Fold Change],"[2]; Mec-1, 1 nM, day 10",194 Fold Change
same,Rep 2 Live Cells [Fold Change],"[2]; Mec-1, 1 nM, day 10",282 Fold Change
same,Rep 1 Live Cells [Fold Change],"[2]; Mec-1, 1 nM, day 12",737 Fold Change
same,Rep 2 Live Cells [Fold Change],"[2]; Mec-1, 1 nM, day 12",940 Fold Change
same,Rep 1 Live Cells [Fold Change],"[2]; Mec-1, 10 nM, day 0",1 Fold Change
same,Rep 2 Live Cells [Fold Change],"[2]; Mec-1, 10 nM, day 0",1 Fold Change
same,Rep 1 Live Cells [Fold Change],"[2]; Mec-1, 10 nM, day 3",4.7 Fold Change
same,Rep 2 Live Cells [Fold Change],"[2]; Mec-1, 10 nM, day 3",4.73 Fold Change
same,Rep 1 Live Cells [Fold Change],"[2]; Mec-1, 10 nM, day 6",4.72 Fold Change
same,Rep 2 Live Cells [Fold Change],"[2]; Mec-1, 10 nM, day 6",5.92 Fold Change
same,Rep 1 Live Cells [Fold Change],"[2]; Mec-1, 10 nM, day 10",4.93 Fold Change
same,Rep 2 Live Cells [Fold Change],"[2]; Mec-1, 10 nM, day 10",4.62 Fold Change
same,Rep 1 Live Cells [Fold Change],"[2]; Mec-1, 10 nM, day 12",3.86 Fold Change
same,Rep 2 Live Cells [Fold Change],"[2]; Mec-1, 10 nM, day 12",2.38 Fold Change
same,Rep 1 Live Cells [Fold Change],"[2]; Mec-1, 100 nM, day 0",1 Fold Change
same,Rep 2 Live Cells [Fold Change],"[2]; Mec-1, 100 nM, day 0",1 Fold Change
same,Rep 1 Live Cells [Fold Change],"[2]; Mec-1, 100 nM, day 3",4.17 Fold Change
same,Rep 2 Live Cells [Fold Change],"[2]; Mec-1, 100 nM, day 3",4.67 Fold Change
same,Rep 1 Live Cells [Fold Change],"[2]; Mec-1, 100 nM, day 6",3.53 Fold Change
same,Rep 2 Live Cells [Fold Change],"[2]; Mec-1, 100 nM, day 6",4.53 Fold Change
same,Rep 1 Live Cells [Fold Change],"[2]; Mec-1, 100 nM, day 10",2.56 Fold Change
same,Rep 2 Live Cells [Fold Change],"[2]; Mec-1, 100 nM, day 10",2.9 Fold Change
same,Rep 1 Live Cells [Fold Change],"[2]; Mec-1, 100 nM, day 12",1.15 Fold Change
same,Rep 2 Live Cells [Fold Change],"[2]; Mec-1, 100 nM, day 12",1.27 Fold Change
same,Rep 1 Live Cells [Fold Change],"[2]; Mec-1, 1 µM, day 0",1 Fold Change
same,Rep 2 Live Cells [Fold Change],"[2]; Mec-1, 1 µM, day 0",1 Fold Change
same,Rep 1 Live Cells [Fold Change],"[2]; Mec-1, 1 µM, day 3",1.48 Fold Change
same,Rep 2 Live Cells [Fold Change],"[2]; Mec-1, 1 µM, day 3",1.38 Fold Change
same,Rep 1 Live Cells [Fold Change],"[2]; Mec-1, 1 µM, day 6",0.841 Fold Change
same,Rep 2 Live Cells [Fold Change],"[2]; Mec-1, 1 µM, day 6",2.27 Fold Change
same,Rep 1 Live Cells [Fold Change],"[2]; Mec-1, 1 µM, day 10",1.28 Fold Change
same,Rep 2 Live Cells [Fold Change],"[2]; Mec-1, 1 µM, day 10",1.57 Fold Change
same,Rep 1 Live Cells [Fold Change],"[2]; Mec-1, 1 µM, day 12",0.808 Fold Change
same,Rep 2 Live Cells [Fold Change],"[2]; Mec-1, 1 µM, day 12",0.765 Fold Change
same,anti-proliferative potency compared to PRT382,[2]; high doses (1µM),similar
same,anti-proliferative potency compared to PRT382,"[2]; lower doses (10nM, 100nM)",more potent
